Measurements from ChEMBL document CHEMBL1152560, “Substituted 2-arylbenzothiazoles as kinase inhibitors: hit-to-lead optimization” (Bioorg Med Chem, 2009).

Legend:
[1] = target: Mitogen-activated protein kinase 9 (Homo sapiens) (UniProt P45984); experiment: Residual activity of JNK2 at 0.1 uM by microplate scintillation counting
[2] = target: Serine/threonine-protein kinase PAK 1 (Homo sapiens) (UniProt Q13153); experiment: Residual activity of PAK1 at 1 uM by microplate scintillation counting
[3] = target: Ephrin type-A receptor 7 (Homo sapiens) (UniProt Q15375); experiment: Residual activity of EPHA7 at 0.1 uM by microplate scintillation counting
Chain of Ephrin type-A receptor 7 (Homo sapiens) (Q15375 28-998 limits assumed): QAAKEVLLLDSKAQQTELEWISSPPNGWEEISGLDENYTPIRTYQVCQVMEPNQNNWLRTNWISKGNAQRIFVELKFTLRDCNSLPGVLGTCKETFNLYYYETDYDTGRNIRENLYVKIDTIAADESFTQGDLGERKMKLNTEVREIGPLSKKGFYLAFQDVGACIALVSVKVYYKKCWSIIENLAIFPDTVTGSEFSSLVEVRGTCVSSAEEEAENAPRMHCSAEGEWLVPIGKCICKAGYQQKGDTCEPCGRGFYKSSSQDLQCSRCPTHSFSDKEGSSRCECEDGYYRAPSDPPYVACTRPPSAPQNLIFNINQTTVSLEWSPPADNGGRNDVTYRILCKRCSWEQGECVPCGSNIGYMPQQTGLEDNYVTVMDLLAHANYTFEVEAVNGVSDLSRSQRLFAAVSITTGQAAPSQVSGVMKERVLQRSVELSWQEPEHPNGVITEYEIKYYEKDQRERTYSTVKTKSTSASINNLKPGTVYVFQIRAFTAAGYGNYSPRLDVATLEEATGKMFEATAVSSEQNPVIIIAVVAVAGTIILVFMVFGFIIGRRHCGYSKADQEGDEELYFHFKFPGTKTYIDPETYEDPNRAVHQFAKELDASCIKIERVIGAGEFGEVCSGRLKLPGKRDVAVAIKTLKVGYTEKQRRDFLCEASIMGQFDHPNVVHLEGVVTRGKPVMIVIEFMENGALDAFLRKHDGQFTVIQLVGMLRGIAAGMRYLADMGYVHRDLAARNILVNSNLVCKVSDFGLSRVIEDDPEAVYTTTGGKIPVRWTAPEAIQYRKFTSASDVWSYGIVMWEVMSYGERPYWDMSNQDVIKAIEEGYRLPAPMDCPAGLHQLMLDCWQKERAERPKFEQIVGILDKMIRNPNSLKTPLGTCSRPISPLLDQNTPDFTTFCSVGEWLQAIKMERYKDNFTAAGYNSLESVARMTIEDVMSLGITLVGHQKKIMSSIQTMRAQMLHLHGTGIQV

[4] = target: T1, Serine/threonine-protein kinase Sgk2 (Homo sapiens) (UniProt Q9HBY8); experiment: Residual activity of SGK2 at 0.1 uM by microplate scintillation counting
T1 sequence (whole entry): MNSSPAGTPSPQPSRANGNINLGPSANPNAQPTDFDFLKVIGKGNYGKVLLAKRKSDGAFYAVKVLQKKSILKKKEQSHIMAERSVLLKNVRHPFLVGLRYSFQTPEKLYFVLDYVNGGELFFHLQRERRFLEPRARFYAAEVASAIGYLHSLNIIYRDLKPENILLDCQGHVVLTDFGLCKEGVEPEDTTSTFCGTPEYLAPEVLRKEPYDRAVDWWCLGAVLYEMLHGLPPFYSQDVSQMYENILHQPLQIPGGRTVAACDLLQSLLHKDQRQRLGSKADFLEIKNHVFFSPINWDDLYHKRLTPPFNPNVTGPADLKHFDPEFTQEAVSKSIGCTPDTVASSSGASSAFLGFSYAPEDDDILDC

[5] = target: T2, Myotonin-protein kinase (Homo sapiens) (UniProt Q09013); experiment: Residual activity of DMPK at 0.1 uM by microplate scintillation counting
T2 sequence (whole entry): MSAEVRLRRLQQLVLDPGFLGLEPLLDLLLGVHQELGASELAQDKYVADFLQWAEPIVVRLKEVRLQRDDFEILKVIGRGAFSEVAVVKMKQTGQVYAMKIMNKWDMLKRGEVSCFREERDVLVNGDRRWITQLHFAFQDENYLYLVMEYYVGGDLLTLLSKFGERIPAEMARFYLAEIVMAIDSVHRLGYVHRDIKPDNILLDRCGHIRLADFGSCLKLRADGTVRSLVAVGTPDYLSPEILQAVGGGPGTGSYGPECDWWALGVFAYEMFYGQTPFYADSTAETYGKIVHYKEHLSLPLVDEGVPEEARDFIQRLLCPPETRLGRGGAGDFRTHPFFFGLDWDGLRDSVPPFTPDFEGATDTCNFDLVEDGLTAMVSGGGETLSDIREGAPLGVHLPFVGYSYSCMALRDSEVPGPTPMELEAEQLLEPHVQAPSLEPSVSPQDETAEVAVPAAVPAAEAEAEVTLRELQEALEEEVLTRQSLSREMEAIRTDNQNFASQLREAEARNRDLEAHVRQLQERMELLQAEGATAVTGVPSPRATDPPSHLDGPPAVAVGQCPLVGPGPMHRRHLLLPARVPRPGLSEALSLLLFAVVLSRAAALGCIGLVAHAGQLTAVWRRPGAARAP

[6] = target: T3, Serine/threonine-protein kinase DCLK2 (Homo sapiens) (UniProt Q8N568); experiment: Residual activity of DCAMKL2 at 0.1 uM by microplate scintillation counting
T3 sequence (whole entry): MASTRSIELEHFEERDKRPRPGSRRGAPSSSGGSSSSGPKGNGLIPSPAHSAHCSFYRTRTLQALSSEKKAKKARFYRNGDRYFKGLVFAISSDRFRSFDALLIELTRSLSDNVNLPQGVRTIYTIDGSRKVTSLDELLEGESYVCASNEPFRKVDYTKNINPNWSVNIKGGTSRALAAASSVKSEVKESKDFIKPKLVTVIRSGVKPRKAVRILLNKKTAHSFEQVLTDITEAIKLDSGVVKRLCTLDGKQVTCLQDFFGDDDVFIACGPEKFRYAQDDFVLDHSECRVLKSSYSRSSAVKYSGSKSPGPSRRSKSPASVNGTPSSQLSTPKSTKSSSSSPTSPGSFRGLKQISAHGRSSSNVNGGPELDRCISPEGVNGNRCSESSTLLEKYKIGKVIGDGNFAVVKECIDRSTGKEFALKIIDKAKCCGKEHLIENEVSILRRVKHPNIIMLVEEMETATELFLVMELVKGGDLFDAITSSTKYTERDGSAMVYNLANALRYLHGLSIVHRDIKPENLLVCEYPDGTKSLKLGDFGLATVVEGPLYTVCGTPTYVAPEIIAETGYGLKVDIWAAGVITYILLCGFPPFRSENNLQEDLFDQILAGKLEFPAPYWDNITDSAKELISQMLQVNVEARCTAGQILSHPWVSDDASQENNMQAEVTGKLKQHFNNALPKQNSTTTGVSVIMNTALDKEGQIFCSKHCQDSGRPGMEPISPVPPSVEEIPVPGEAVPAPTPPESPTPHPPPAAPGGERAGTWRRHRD

[7] = target: T4, Ephrin type-A receptor 8 (Homo sapiens) (UniProt P29322); experiment: Residual activity of EPHA8 at 10 uM by microplate scintillation counting
T4 sequence (whole entry): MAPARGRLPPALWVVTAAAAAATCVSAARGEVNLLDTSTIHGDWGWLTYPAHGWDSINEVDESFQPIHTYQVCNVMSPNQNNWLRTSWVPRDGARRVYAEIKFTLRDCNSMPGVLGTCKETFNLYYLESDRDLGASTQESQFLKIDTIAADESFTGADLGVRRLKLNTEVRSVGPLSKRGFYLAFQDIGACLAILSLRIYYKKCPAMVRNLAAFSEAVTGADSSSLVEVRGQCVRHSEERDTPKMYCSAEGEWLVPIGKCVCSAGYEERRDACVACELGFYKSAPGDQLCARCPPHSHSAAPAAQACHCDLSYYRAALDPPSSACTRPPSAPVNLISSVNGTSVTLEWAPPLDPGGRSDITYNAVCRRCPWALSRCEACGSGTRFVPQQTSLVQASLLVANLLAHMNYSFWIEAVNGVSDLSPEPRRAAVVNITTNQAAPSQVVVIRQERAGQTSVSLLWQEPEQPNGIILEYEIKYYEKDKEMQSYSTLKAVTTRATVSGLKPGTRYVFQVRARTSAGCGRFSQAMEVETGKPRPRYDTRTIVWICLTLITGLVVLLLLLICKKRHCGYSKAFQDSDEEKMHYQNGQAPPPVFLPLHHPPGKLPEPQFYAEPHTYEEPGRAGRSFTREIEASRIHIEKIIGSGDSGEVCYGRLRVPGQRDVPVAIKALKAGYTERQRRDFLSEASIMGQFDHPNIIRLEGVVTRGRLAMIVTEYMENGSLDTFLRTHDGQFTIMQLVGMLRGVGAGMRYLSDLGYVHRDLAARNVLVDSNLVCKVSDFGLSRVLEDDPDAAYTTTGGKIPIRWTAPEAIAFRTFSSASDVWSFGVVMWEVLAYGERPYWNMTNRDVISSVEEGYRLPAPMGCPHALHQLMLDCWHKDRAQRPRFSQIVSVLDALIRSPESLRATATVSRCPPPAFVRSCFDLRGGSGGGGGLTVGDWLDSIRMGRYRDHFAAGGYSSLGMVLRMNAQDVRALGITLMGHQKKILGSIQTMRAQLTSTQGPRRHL

Chain of Mitogen-activated protein kinase 9 (Homo sapiens) (P45984 whole entry, looked up): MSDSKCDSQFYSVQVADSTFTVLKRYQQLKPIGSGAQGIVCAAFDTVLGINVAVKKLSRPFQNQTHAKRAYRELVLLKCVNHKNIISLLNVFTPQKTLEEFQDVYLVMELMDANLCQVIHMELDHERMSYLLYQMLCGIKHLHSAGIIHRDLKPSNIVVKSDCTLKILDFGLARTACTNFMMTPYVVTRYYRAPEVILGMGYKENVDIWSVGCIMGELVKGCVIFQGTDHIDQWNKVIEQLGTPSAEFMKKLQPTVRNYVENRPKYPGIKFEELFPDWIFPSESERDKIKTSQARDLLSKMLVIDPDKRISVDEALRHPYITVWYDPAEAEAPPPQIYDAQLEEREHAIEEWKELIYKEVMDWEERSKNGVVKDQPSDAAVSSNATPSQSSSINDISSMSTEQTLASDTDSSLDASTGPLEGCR
Chain of Serine/threonine-protein kinase PAK 1 (Homo sapiens) (Q13153 whole entry): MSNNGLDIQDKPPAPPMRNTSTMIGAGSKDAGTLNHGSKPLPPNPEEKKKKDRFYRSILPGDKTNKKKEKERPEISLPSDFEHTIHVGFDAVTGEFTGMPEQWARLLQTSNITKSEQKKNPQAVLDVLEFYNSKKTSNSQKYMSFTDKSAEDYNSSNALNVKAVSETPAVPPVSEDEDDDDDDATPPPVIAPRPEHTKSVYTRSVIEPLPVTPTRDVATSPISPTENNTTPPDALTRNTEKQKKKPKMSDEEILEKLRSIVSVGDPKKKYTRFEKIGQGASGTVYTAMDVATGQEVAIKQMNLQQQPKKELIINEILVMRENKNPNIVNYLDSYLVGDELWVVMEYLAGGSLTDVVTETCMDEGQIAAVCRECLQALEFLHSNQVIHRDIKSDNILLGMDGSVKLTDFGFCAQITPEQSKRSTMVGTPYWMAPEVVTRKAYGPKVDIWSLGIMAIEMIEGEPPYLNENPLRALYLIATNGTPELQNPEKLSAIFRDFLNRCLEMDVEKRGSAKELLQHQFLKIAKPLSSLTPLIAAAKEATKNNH

| SMILES | residual activity [1] [%] | residual activity [2] [%] | residual activity [3] [%] | residual activity [4] [%] | residual activity [5] [%] | residual activity [6] [%] | residual activity [7] [%] |
| --- | --- | --- | --- | --- | --- | --- | --- |
| COc1cc2c(Oc3ccc(-c4nc5ccccc5s4)cc3F)ncnc2cc1OCCCN1CCN(C)CC1 | 103 | 91 | 103 | 95 | 102 | 80 | 114 |
| COc1cc2c(Oc3ccc(-c4nc5ccccc5s4)cc3)ncnc2cc1OCCCN1CCCC1 | 89 | 101 | 111 | 94 | 110 | 87 | 185 |
| COc1cc2c(Oc3ccc(-c4nc5ccccc5s4)cc3)ncnc2cc1OCCCN1CCN(C)CC1 | 108 | 104 | 88 | 93 | 128 | 66 | 273 |
